Test results from ChEMBL document CHEMBL4715789, “Identification of a Potential Antimalarial Drug Candidate from a Series of 2-Aminopyrazines by Optimization of Aqueous Solubility and Potency across the Parasite Life Cycle” (J Med Chem, 2016).
≈ marks a conversion by molar mass, not a printed value.

Assays:
[1] = Aqueous solubility of compound in pH 2 0.01M HCl incubated for 2 hrs under shaking condition by shake-flask method based HPLC-DAD analysis; format: physicochemical
[2] = Aqueous solubility of compound in pH 6.5 PBS incubated for 2 hrs under shaking condition by shake-flask method based HPLC-DAD analysis; format: physicochemical
Plasmodium berghei [3] = experiment: Antiplasmodial activity against Plasmodium berghei ANKA infected in NMRI mouse assessed as reduction in parasitemia at 3 mg/kg, po qd for 4 consecutive days measured at day 7 post infection by flow cytometry analysis; format: functional; design: scale not given: the % may be the effect or the level left; settings: time 4 day
Plasmodium berghei [4] = experiment: Antiplasmodial activity against Plasmodium berghei ANKA infected in NMRI mouse model assessed as mean survival days at 3 mg/kg, po qd for 4 consecutive day; format: functional; settings: time 4 day
[5] = AUC(app) in NMRI mouse plasma infected with Plasmodium berghei ANKA at 3 mg/kg, po qd for 4 consecutive days and measured post last dose; format: ADME, organism-based; settings: time 4 day
[6] = Cmax(app) in NMRI mouse plasma infected with Plasmodium berghei ANKA at 3 mg/kg, po qd for 4 consecutive days and measured post last dose; format: ADME, organism-based; settings: time 4 day
[7] = Apparent average plasma concentration in NMRI mouse plasma infected with Plasmodium berghei ANKA at 3 mg/kg, po qd for 4 consecutive days and measured post last dose; format: ADME, organism-based; settings: in vivo, 96 h, time 4 day
Plasmodium falciparum [8] = experiment: microbe, parasite or virus in culture; settings: NF54, Erythrocyte
Description: Antiplasmodial activity against multidrug-sensitive Plasmodium falciparum NF54 infected in human erythrocytes assessed as reduction in [3H]hypoxanthine incorporation preincubated for 48 hrs followed by [3H]hypoxanthine addition and measured after 24 hrs by liquid scintillation counting method

Plasmodium falciparum [9] = experiment: microbe, parasite or virus in culture; settings: K1, Erythrocyte
Description: Antiplasmodial activity against multidrug-resistant Plasmodium falciparum K1 infected in erythrocytes assessed as reduction in [3H]hypoxanthine incorporation preincubated for 48 hrs followed by [3H]hypoxanthine addition and measured after 24 hrs by liquid scintillation counting method

[10] = molecular target: Voltage-gated inwardly rectifying potassium channel KCNH2 (Homo sapiens, UniProt Q12809); experiment: Inhibition of human ERG by IonWorks patch clamp electrophysiology method
Voltage-gated inwardly rectifying potassium channel KCNH2, sequence (Q12809 whole entry): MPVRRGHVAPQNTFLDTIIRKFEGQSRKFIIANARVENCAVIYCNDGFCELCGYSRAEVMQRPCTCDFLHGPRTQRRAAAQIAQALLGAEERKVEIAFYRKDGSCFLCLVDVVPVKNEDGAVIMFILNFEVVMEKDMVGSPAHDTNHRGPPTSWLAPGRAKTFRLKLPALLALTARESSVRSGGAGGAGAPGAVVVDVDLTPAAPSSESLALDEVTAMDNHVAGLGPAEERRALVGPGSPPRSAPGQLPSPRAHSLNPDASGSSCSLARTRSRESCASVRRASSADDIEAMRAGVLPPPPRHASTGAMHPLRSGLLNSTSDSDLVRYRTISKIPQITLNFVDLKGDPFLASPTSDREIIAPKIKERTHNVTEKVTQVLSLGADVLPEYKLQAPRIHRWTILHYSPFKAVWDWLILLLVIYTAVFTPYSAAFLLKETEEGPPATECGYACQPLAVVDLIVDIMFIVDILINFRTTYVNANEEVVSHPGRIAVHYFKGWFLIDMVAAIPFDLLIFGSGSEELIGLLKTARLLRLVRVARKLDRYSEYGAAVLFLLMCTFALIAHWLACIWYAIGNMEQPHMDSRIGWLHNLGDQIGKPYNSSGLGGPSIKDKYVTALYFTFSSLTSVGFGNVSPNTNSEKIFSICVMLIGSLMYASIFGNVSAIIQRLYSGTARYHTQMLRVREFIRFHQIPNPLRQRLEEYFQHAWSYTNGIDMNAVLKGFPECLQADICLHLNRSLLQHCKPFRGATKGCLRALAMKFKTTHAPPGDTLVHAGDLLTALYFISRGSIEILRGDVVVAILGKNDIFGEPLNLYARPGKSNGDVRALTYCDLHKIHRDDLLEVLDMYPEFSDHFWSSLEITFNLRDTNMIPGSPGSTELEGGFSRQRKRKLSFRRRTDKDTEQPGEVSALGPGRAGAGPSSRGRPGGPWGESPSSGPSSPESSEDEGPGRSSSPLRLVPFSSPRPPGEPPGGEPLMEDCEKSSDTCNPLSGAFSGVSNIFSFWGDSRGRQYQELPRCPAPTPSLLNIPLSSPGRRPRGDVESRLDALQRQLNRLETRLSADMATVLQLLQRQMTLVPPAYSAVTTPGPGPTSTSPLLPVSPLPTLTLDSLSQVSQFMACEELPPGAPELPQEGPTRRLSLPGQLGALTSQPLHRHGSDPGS

hERG (KCNH2) = experiment: Selectivity ratio of IC50 for inhibition of human ERG by IonWorks patch clamp electrophysiology method to IC50 for antiplasmodial activity against multidrug-sensitive Plasmodium falciparum NF54 infected in human erythrocytes; format: toxicity, cell-based; settings: read-out: Ratio IC50
[11] = Selectivity index, ratio of IC50 for cytotoxicity against CHO cells by MTT assay to IC50 for antiplasmodial activity against multidrug-sensitive Plasmodium falciparum NF54 infected in human erythrocytes; format: toxicity, cell-based; settings: Chinese hamster, read-out: Ratio IC50
[12] = Metabolic stability in human liver microsomes assessed as compound remaining at 0.1 uM measured after 30 mins in presence of cofactor NADPH by LC-MS/MS analysis; format: ADME, Microsome; settings: read-out: Stabilty
[13] = Metabolic stability in rat liver microsomes assessed as compound remaining at 0.1 uM measured after 30 mins in presence of cofactor NADPH by LC-MS/MS analysis; format: ADME, Microsome; settings: read-out: Stabilty
[14] = Metabolic stability in mouse liver microsomes assessed as compound remaining at 0.1 uM measured after 30 mins in presence of cofactor NADPH by LC-MS/MS analysis; format: ADME, Microsome; settings: read-out: Stabilty
Plasmodium berghei [15] = experiment: Antiplasmodial activity against Plasmodium berghei ANKA infected in NMRI mouse model assessed as mean survival days at 10 mg/kg, po qd for 4 consecutive day; format: functional; settings: time 4 day
Plasmodium berghei [16] = experiment: Antiplasmodial activity against Plasmodium berghei ANKA infected in NMRI mouse model assessed as reduction in parasitemia administered orally once a day for 4 consecutive days measured at day 7 post infection by flow cytometry analysis; format: functional; settings: po, 96 h, time 4 day
Plasmodium falciparum [17] = experiment: Antiplasmodial activity against Plasmodium falciparum 3D70087/N9 infected in NOD-SCID IL2Rgamma null mouse assessed as reduction in parasitemia administered orally on day 3 to 6 post-infection and measured day 7 post infection by TER-119-PE and […] dye based flow cytometry; format: functional; settings: 3D70087/N9, po, 120 h, time 5 day
Plasmodium falciparum [18] = experiment: Antimalarial activity against Plasmodium falciparum 3D70087/N9 infected in NOD-SCID IL2Rgamma null mouse assessed as blood AUC level require to show 90% reduction in parasitemia administered orally on day 3 to 6 post-infection and measured day 7 post infection; format: functional, organism-based; settings: time 5.0 day
[19] = Half-life in Sprague-dawley rat at 20 mg/kg, po by LC-MS/MS analysis; format: ADME, organism-based; settings: in vivo
[20] = Oral bioavailability in Sprague-dawley rat at 20 mg/kg by LC-MS/MS analysis; format: ADME, organism-based; settings: in vivo
Plasmodium falciparum [21] = experiment: Antiplasmodial activity against late stage (IV/V) Plasmodium falciparum NF54 gametocytes incubated for 48 hrs by luciferase reporter gene assay; format: functional, organism-based; settings: NF54, 48 h
Plasmodium falciparum [22] = experiment: Antiplasmodial activity against early stage (II/III) Plasmodium falciparum NF54 gametocytes incubated for 48 hrs by luciferase reporter gene assay; format: functional, organism-based; settings: NF54, 48 h
Plasmodium berghei [23] = experiment: Antiplasmodial activity against Plasmodium berghei ANKA infected in NMRI mouse assessed as reduction in parasitemia at 10 mg/kg, po qd for 4 consecutive days measured at day 7 post infection by flow cytometry analysis; format: functional; design: scale not given: the % may be the effect or the level left; settings: time 4 day
Plasmodium berghei [24] = experiment: Antiplasmodial activity against luciferase expressing Plasmodium berghei sporozoites infected in human HepG2 cells preincubated with compound for 18 hrs followed by plasmodium infection measured after 48 hrs by bioluminescence assay; format: functional, organism-based
[25] = Half-life in Sprague-dawley rat at 5 mg/kg, iv by LC-MS/MS analysis; format: ADME, organism-based; settings: in vivo
[26] = Clearance in Sprague-dawley rat at 5 mg/kg, iv by LC-MS/MS analysis; format: ADME, organism-based; settings: in vivo
[27] = Volume of distribution in Sprague-dawley rat at 5 mg/kg, iv by LC-MS/MS analysis; format: ADME, organism-based; settings: in vivo

Compound | solubility thermodynamic at 2 h [1] [µM] | solubility thermodynamic at 2 h [2] [µM] | Activity (Plasmodium berghei [3]) [%] | MSD (Plasmodium berghei [4]) [days] | AUC at 96 h [5] [µM·h] | Cmax [6] [nM] | Cave [7] [nM] | IC50 (Plasmodium falciparum [8]) [nM] | IC50 (Plasmodium falciparum [9]) [nM] | IC50 [10] [nM] | selectivity ratio [11] | remaining at 0.5 h, 0.1 µM [12] [%] | remaining at 0.5 h, 0.1 µM [13] [%] | remaining at 0.5 h, 0.1 µM [14] [%] | MSD (Plasmodium berghei [15]) [days] | ED90 (Plasmodium falciparum [17]) [mg/kg] | AUC (Plasmodium falciparum [18]) [ng·h/mL] | half-life [19] [h] | bioavailability [20] [%] | IC50 (Plasmodium falciparum [21]) [nM] | further results
CC(C)(C)N1CCN(C(=O)c2ccc(-c3cnc(N)c(-c4ccc(C(F)(F)F)nc4)n3)cc2)CC1 | 200 (≈ 96.9 µg/mL) | 113 (≈ 54.8 µg/mL) | 88 | 14 | 4.34 | 1520 | 570 | 8.9 | 6.4 |  |  |  |  |  |  |  |  |  |  |  | 
Nc1ncc(-c2ccc(C(=O)N3CCC(N)C3)cc2)nc1-c1ccc(C(F)(F)F)cc1 (configuration not stated) | 165 (≈ 70.5 µg/mL) | 102 (≈ 43.6 µg/mL) | 71 | 7 |  |  |  | 19 | 12 | 10000 |  |  |  |  |  |  |  |  |  |  | selectivity ratio (hERG (KCNH2)): 526
NC(=O)c1ccc(-c2cnc(N)c(-c3ccc(C(F)(F)F)cc3)n2)cc1 | 80 (≈ 28.7 µg/mL) | < 5 |  | 20 | 42.3 | 4000 | 1800 | 14 | 13 |  | > 1800 | > 90 | > 90 | > 90 | >30 | < 0.1 | < 75 | 7 | 25 | 237 | ED90 (Plasmodium berghei [16]): 0.3 mg/kg; IC50 (Plasmodium falciparum [22]): 754 nM
Nc1ncc(-c2ccc(C(=O)O)cc2)nc1-c1ccc(C(F)(F)F)nc1 | 191 (≈ 68.8 µg/mL) | 178 (≈ 64.1 µg/mL) | 93 | 7 | 30.8 | 2290 | 1480 | 19 | 26 |  | > 1800 | > 90 | > 90 | > 90 | 10 | < 0.5 | < 440 | 3.9 | 38 | 845 | Activity (Plasmodium berghei [23]): 99.8%; IC50 (Plasmodium berghei [24]): 528 nM; IC50 (Plasmodium falciparum [22]): 168 nM
CN1CCCN(C(=O)c2ccc(-c3cnc(N)c(-c4ccc(C(F)(F)F)cc4)n3)cc2)CC1 | 200 (≈ 91.1 µg/mL) | 152 (≈ 69.2 µg/mL) | 90 | 7 |  |  |  | 6.8 | 5.7 | 5000 |  |  |  |  |  |  |  |  |  |  | 
NC(=O)c1ccc(-c2cnc(N)c(-c3ccc(C(F)(F)F)nc3)n2)cc1 | < 5 | < 5 |  | 7.7 | 69.3 | 5000 | 2900 | 20 | 16 |  |  | > 90 | > 90 | > 90 | 14 |  |  |  |  |  | 
Nc1ncc(-c2ccc(C(=O)N3CC[C@@H](O)C3)cc2)nc1-c1ccc(C(F)(F)F)cc1 | 103 (≈ 44.1 µg/mL) | 90 (≈ 38.6 µg/mL) |  | 8 | 33.2 | 3290 | 1930 | 22 | 20 | > 33000 | > 1800 | > 90 | > 90 | > 90 | 26 | 0.14 | 60 | 7.2 | 71 | 137 | selectivity ratio (hERG (KCNH2)): > 1000; Activity (Plasmodium berghei [23]): 100%; ED90 (Plasmodium berghei [16]): 1.1 mg/kg; half-life [25]: 5.3 h; clearance [26]: 13.5 mL/min/kg; Vd [27]: 8.2 L/kg; IC50 (Plasmodium berghei [24]): 14 nM; IC50 (Plasmodium falciparum [22]): 323 nM
Nc1ncc(-c2ccc(C(=O)N3CC(O)C3)cc2)nc1-c1ccc(C(F)(F)F)cc1 | 110 (≈ 45.6 µg/mL) | 55 (≈ 22.8 µg/mL) | 99.7 | 10 |  |  |  | 9.2 | 7 |  | > 1800 | > 90 | > 90 | > 90 | >30 | 0.17 | 22 | 5.2 | 20 | 45 | Activity (Plasmodium berghei [23]): 99.9%; half-life [25]: 3 h; clearance [26]: 22 mL/min/kg; Vd [27]: 5.7 L/kg; IC50 (Plasmodium berghei [24]): 2.7 nM; IC50 (Plasmodium falciparum [22]): 415 nM
Nc1ncc(-c2ccc(C(=O)N3CCC(O)C3)cc2)nc1-c1ccc(C(F)(F)F)cc1 (configuration not stated) | 129 (≈ 55.3 µg/mL) | 77 (≈ 33 µg/mL) | 99.6 | 8 | 34.7 | 3610 | 2060 | 9.6 | 6.8 |  |  | > 90 | > 90 | > 90 |  |  |  |  |  |  | 
Nc1ncc(-c2ccc(C(=O)N3CCC(O)CC3)cc2)nc1-c1ccc(C(F)(F)F)nc1 | 200 (≈ 88.7 µg/mL) | 184 (≈ 81.6 µg/mL) | 64 | 7 |  |  |  | 10 | 9 | > 33000 |  | > 90 | > 90 | > 90 | 7 |  |  |  |  |  | selectivity ratio (hERG (KCNH2)): > 868; Activity (Plasmodium berghei [23]): 85%
